The record followed here is article PMC7287908, “N-Alkyl-2-[4-(trifluoromethyl)benzoyl]hydrazine-1-carboxamides and Their Analogues: Synthesis and Multitarget Biological Activity” (Molecules, 2020).

In assay [1] the target is T1, AChE from electric eel (EeAChE) (Electrophorus electricus, UniProt O42275).
T1 construct: Acetylcholinesterase used was obtained from electric eel (Electrophorus electricus L; EeAChE); purchased Sigma-Aldrich (Prague, Czech Republic); host or cells: electric eel (natural source)
T1 sequence (O42275 24-633): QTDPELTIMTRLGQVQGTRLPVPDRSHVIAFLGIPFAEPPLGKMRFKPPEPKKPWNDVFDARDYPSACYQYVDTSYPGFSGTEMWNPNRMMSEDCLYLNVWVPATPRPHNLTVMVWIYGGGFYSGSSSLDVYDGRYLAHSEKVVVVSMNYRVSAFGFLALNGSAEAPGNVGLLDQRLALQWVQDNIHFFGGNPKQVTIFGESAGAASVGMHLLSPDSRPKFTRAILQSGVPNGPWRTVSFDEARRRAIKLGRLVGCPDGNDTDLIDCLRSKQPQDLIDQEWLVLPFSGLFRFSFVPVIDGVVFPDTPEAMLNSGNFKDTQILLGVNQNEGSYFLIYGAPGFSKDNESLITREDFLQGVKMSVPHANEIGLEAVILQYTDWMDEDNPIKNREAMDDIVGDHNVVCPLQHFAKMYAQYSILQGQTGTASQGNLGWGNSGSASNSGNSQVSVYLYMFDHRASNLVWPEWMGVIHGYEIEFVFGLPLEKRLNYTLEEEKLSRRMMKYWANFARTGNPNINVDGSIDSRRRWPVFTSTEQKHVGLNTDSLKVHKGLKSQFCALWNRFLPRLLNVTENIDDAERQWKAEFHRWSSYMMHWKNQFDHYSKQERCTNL
In words: biochemical. The conditions noted are these: for IC50: electric eel AChE, mean ± SD, n = three independent experiments; for Selectivity BuChE/AChE (selectivity index, SI): ratio of IC50 for BuChE/IC50 for AChE. As to the method: (§1) Newly synthesized N-alkyl-2-[4-(trifluoromethyl)benzoyl]hydrazine-1-carboxamides 2a–2q were evaluated for their in vitro potency to inhibit AChE from electric eel (EeAChE) and BuChE from equine serum (EqBuChE) using modified Ellman’s spectrophotometric method. […] The efficacy of inhibitors is expressed as IC50, i.e., the concentration causing 50% inhibition of the enzyme activity. Based on IC50 values for both enzymes, selectivity indexes (SI) as the ratio of IC50 for BuChE/IC50 for AChE to quantify the preference for AChE were calculated (Table 1).
(§2) IC50 values were determined using the spectrophotometric Ellman’s method modified according to Zdražilová et al., which is a simple, rapid and direct method to determine the SH and -S-S- group content. This method is widely used for the screening of the efficiency of cholinesterases inhibitors. The enzymatic activity is measured indirectly by quantifying the concentration of the 5-thio-2-nitrobenzoic acid ion formed in the reaction between the thiol reagent 5,5′-dithio-bis(2-nitrobenzoic acid) and thiocholine, a product of acetylthiocholine substrate hydrolysis by cholinesterases.
(§3) The enzyme activity in final reaction mixture (2000 µL) was 0.2 U/mL, concentration of acetylthiocholine (or butyrylthiocholine) 40 µM and concentration of 5,5′-dithio-bis(2-nitrobenzoic acid) 0.1 mM for all reactions. The tested compounds were dissolved in DMSO and then diluted in demineralized water to the concentration of 1 mM. […] All measurements were carried in triplicates and the average values of reaction rate (v0-uninhibited reaction, vi-inhibited reaction) were used for construction of the dependence v0/vi vs. concentration of inhibitor. From obtained equation of regression curve, IC50 values were calculated.
(§4) Acetylcholinesterase used was obtained from electric eel (Electrophorus electricus L.; EeAChE) and butyrylcholinesterase from equine serum (EqBuChE).

Assay [2] has as its target T2, BuChE from equine serum (EqBuChE) (Equus caballus, UniProt P81908).
T2 construct: butyrylcholinesterase from equine serum (EqBuChE); purchased Sigma-Aldrich (Prague, Czech Republic); host or cells: equine serum (natural source)
In words: biochemical. The note with it: mean ± SD, n = three independent experiments. The procedure: as §1, §2, §3, §4

Assay [3] deals with Mycobacterium tuberculosis 331/88 (H37Rv). The experiment in a line: In vitro antimycobacterial activity (MIC). Format: cell-based. The note with it: read-out: MIC M. tuberculosis.
The test system of assay [4] is M. kansasii 235/80 and M. kansasii 6509/96. The experiment in a line: In vitro antimycobacterial activity (MIC). It counts as cell-based. The conditions noted are these: Mycobacterium kansasii, read-out: MIC M. kansasii.
Assay [5] has as its system M. tuberculosis 331/88, M. avium 330/88, M. kansasii 235/80, M. kansasii 6509/96. In words: In vitro antimycobacterial activity (MIC), whole panel, strain not specified. Format: cell-based. The conditions noted are these: panel of four mycobacterial strains; read-out: MIC (mycobacteria, strain not specified).

Usually IC50 stands for the concentration at which inhibition is half-maximal. Usually MIC stands for the lowest concentration found to suppress growth.

Converted amounts (≈) assume the structure as drawn. Where two headings read alike, the source gives them in different places.

T2 sequence (P81908 whole entry): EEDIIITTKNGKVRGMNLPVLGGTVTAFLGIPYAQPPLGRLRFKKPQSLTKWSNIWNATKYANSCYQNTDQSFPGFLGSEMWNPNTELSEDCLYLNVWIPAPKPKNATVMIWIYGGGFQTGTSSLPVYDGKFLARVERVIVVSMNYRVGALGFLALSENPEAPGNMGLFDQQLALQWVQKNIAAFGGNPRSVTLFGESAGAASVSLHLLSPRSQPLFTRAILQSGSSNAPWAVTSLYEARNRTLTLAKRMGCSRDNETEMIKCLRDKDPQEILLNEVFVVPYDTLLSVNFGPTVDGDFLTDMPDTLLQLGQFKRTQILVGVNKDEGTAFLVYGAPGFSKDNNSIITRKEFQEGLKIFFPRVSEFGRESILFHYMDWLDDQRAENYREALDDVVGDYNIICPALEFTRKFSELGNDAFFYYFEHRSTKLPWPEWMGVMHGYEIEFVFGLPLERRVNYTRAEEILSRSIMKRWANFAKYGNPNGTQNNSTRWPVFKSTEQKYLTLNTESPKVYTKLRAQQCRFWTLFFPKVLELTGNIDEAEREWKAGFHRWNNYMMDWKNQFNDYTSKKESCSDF

Turning to `CCCCCCNc1nnc(-c2ccc(C(F)(F)F)cc2)o1` [compound 4, N-Hexyl-5-[4-(trifluoromethyl)phenyl]-1,3,4-oxadiazol-2-amine], the IC50 came out at 71.32 ± 0.63 µM in assay [1] (read-out: IC50 AChE) and 118 ± 1.46 µM in assay [2] (read-out: IC50 BuChE). In addition, the “Selectivity BuChE/AChE (selectivity index, SI)” value in assay [1] was 1.7. For the same compound, the MIC in assay [3] (H37RV) was 125 to 250 µM (≈ 39.2 to 78.3 µg/mL); in assay [4] it was 62.5 to 250 µM (≈ 19.6 to 78.3 µg/mL); in assay [5], not below 62.5 µM.
As for `CCCCCCNC(=O)NNC(=O)c1ccc(C(F)(F)F)cc1` [2f, N-Hexyl-2-[4-(trifluoromethyl)benzoyl]hydrazine-1-carboxamide], the half-inhibitory concentration (IC50) in assay [1] (read-out: IC50 AChE) was 49.2 ± 2.36 µM; in assay [2] (read-out: IC50 BuChE), 72.5 ± 1.51 µM. Moreover, the “Selectivity BuChE/AChE (selectivity index, SI)” value in assay [1] turned out to be 1.5. Further, the minimal inhibitory concentration (MIC) in assay [3] (H37RV) and in assay [4] was 250 µM (≈ 82.8 µg/mL) each time.
Regarding `CCCCCCCCCCCCCCCNC(=O)NNC(=O)c1ccc(C(F)(F)F)cc1` [2o, N-Pentadecyl-2-[4-(trifluoromethyl)benzoyl]hydrazine-1-carboxamide], the IC50 turned out to be 27 µM in assay [1] (read-out: IC50 AChE) and 233 ± 15.7 µM in assay [2] (read-out: IC50 BuChE). Further, in assay [1], the “Selectivity BuChE/AChE (selectivity index, SI)” value was 8.6.
The like results for `CCCCCCCCCCCCCCCCNC(=O)NNC(=O)c1ccc(C(F)(F)F)cc1` [2p, N-Hexadecyl-2-[4-(trifluoromethyl)benzoyl]hydrazine-1-carboxamide] were, in that order, 68.63 ± 0.56 µM, 187 ± 13.2 µM and 2.7.
Consider `CCCCNC(=O)NNC(=O)c1ccc(C(F)(F)F)cc1` [2d, N-Butyl-2-[4-(trifluoromethyl)benzoyl]hydrazine-1-carboxamide], for which the IC50 in assay [1] (read-out: IC50 AChE) worked out at 38.6 ± 1.32 µM; in assay [2] (read-out: IC50 BuChE), 87.8 ± 7.96 µM. Further, in assay [1], the “Selectivity BuChE/AChE (selectivity index, SI)” value came to 2.3.
Consider `CCCCCCCNC(=O)NNC(=O)c1ccc(C(F)(F)F)cc1` [2g, N-Heptyl-2-[4-(trifluoromethyl)benzoyl]hydrazine-1-carboxamide], for which the IC50 in assay [1] (read-out: IC50 AChE) was determined as 59.2 ± 2.38 µM; in assay [2] (read-out: IC50 BuChE), 79.3 ± 1.53 µM. Moreover, the “Selectivity BuChE/AChE (selectivity index, SI)” value in assay [1] was determined as 1.3.
On to `CCCCCCCCCCCCCNC(=O)NNC(=O)c1ccc(C(F)(F)F)cc1` [2m, N-Tridecyl-2-[4-(trifluoromethyl)benzoyl]hydrazine-1-carboxamide], for which the figures for the IC50 in assay [1] (IC50 AChE), in assay [2] (IC50 BuChE) and in assay [2] (read-out: IC50 BuChE) were 28.9 ± 0.67 µM, 278 µM and 277 ± 10.3 µM, respectively. Further, in assay [1], the “Selectivity BuChE/AChE (selectivity index, SI)” value is 9.6.
`CCNC(=O)NNC(=O)c1ccc(C(F)(F)F)cc1` [2b, N-Ethyl-2-[4-(trifluoromethyl)benzoyl]hydrazine-1-carboxamide]: the figures for the IC50 in assay [1] (read-out: IC50 AChE) and in assay [2] (read-out: IC50 BuChE) were 56.32 ± 0.54 µM and 103 ± 2.75 µM, respectively. Moreover, the “Selectivity BuChE/AChE (selectivity index, SI)” value in assay [1] is recorded as 1.8. The MIC in assay [3] (H37RV) and in assay [4] was 1000 µM (≈ 275 µg/mL) each time.
Consider `CCCCCCCCCCCCCCCC(=O)NNC(=O)c1ccc(C(F)(F)F)cc1` [3b, N′-Palmitoyl-4-(trifluoromethyl)benzohydrazide], for which the results for the IC50 in assay [1] (read-out: IC50 AChE) and in assay [2] (read-out: IC50 BuChE) were 91.9 ± 6.79 µM and 148.6 ± 0.36 µM, respectively. Also, the “Selectivity BuChE/AChE (selectivity index, SI)” value in assay [1] stood at 1.6.
On the same counts, the results for `CCCCCCCCCCCCCCCCCCNC(=O)NNC(=O)c1ccc(C(F)(F)F)cc1` [2q, N-Octadecyl-2-[4-(trifluoromethyl)benzoyl]hydrazine-1-carboxamide] are 72.3 ± 2.01 µM, 146 ± 2.6 µM and 2.0.
Take `CCCNC(=O)NNC(=O)c1ccc(C(F)(F)F)cc1` [2c, N-Propyl-2-[4-(trifluoromethyl)benzoyl]hydrazine-1-carboxamide]: the IC50 in assay [1] (read-out: IC50 AChE) came out at 82.3 ± 3.31 µM; in assay [2] (read-out: IC50 BuChE), 112.7 ± 0.98 µM.
In the case of `CCCCCCCCNC(=O)NNC(=O)c1ccc(C(F)(F)F)cc1` [2h, N-Octyl-2-[4-(trifluoromethyl)benzoyl]hydrazine-1-carboxamide], the results for the IC50 in assay [1] (read-out: IC50 AChE) and in assay [2] (read-out: IC50 BuChE) were 77 ± 4.75 µM and 101.3 ± 0.99 µM, respectively. Further, the “Selectivity BuChE/AChE (selectivity index, SI)” value in assay [1] was 1.3.
For `NNC(=O)c1ccncc1` [isoniazid, isonicotinoylhydrazide, reference compound], in assay [3] (M. tuberculosis 331/88 (H37Rv)), the MIC amounted to 1 µM (≈ 0.137 µg/mL).
As to `CCCCCCCCCCCCNC(=O)NNC(=O)c1ccc(C(F)(F)F)cc1` [2l, N-Dodecyl-2-[4-(trifluoromethyl)benzoyl]hydrazine-1-carboxamide], the results for the IC50 in assay [1] (read-out: IC50 AChE) and in assay [2] (read-out: IC50 BuChE) were 45.2 ± 0.69 µM and 264.14 ± 0.22 µM, respectively. For the same compound, the “Selectivity BuChE/AChE (selectivity index, SI)” value in assay [1] came out at 5.8.
Take `CCCCCC(=O)NNC(=O)c1ccc(C(F)(F)F)cc1` [3a, N′-Hexanoyl-4-(trifluoromethyl)benzohydrazide]: the IC50 came out at 67.1 ± 3.05 µM in assay [1] (read-out: IC50 AChE) and 110 ± 0.2 µM in assay [2] (read-out: IC50 BuChE). For the same compound, the “Selectivity BuChE/AChE (selectivity index, SI)” value in assay [1] is 1.6. Moreover, the results for the minimum inhibitory concentration (MIC) in assay [3] (H37RV) and in assay [4] were 125 µM (≈ 37.8 µg/mL) and more than 250 µM, respectively.
For the compound `CCCCCCCCCNC(=O)NNC(=O)c1ccc(C(F)(F)F)cc1` [2i, N-Nonyl-2-[4-(trifluoromethyl)benzoyl]hydrazine-1-carboxamide], the IC50 in assay [1] (read-out: IC50 AChE) stood at 107 µM; in assay [2] (read-out: IC50 BuChE), 82.2 ± 3.42 µM. The “Selectivity BuChE/AChE (selectivity index, SI)” value in assay [1] was 0.8.
On the same counts, the results for `CCCCCCCCCCCCCCNC(=O)NNC(=O)c1ccc(C(F)(F)F)cc1` [2n, N-Tetradecyl-2-[4-(trifluoromethyl)benzoyl]hydrazine-1-carboxamide] are 38.7 ± 1.14 µM, 262 ± 17.2 µM and 6.8.
For the compound `CCCCCNC(=O)NNC(=O)c1ccc(C(F)(F)F)cc1` [2e, N-Pentyl-2-[4-(trifluoromethyl)benzoyl]hydrazine-1-carboxamide], the IC50 was determined as 43.59 ± 0.41 µM in assay [1] (read-out: IC50 AChE) and 58 µM in assay [2] (read-out: IC50 BuChE). Further, the “Selectivity BuChE/AChE (selectivity index, SI)” value in assay [1] is given as 1.3.
In the case of `CNC(=O)NNC(=O)c1ccc(C(F)(F)F)cc1` [2a, N-Methyl-2-[4-(trifluoromethyl)benzoyl]hydrazine-1-carboxamide], the half-inhibitory concentration (IC50) in assay [1] (IC50 AChE) was 31.2 ± 1.87 µM; in assay [2] (IC50 BuChE), 84.2 ± 2.1 µM. For the same compound, the “Selectivity BuChE/AChE (selectivity index, SI)” value in assay [1] was determined as 2.7. Besides, the MIC in assay [3] (H37RV) and in assay [4] was 1000 µM (≈ 261 µg/mL) each time.
With `CCCCCCCCCCNC(=O)NNC(=O)c1ccc(C(F)(F)F)cc1` [2j, N-Decyl-2-[4-(trifluoromethyl)benzoyl]hydrazine-1-carboxamide], the figures for the IC50 in assay [1] (read-out: IC50 AChE) and in assay [2] (read-out: IC50 BuChE) were 49.5 ± 1.74 µM and 192 ± 6.83 µM, respectively. Further, the “Selectivity BuChE/AChE (selectivity index, SI)” value in assay [1] is recorded as 3.9.
On the same counts, the results for `CCCCCCCCCCCNC(=O)NNC(=O)c1ccc(C(F)(F)F)cc1` [2k, 2-[4-(Trifluoromethyl)benzoyl]-N-undecylhydrazine-1-carboxamide] are 40.71 ± 0.37 µM, 179 ± 2.96 µM and 4.4.
